“Also recorded” adds a separate entry of the source. Ends that are not written are not given here.

Series [1] is described as follows: Stability of antagonistic activity in plasma.
Description: (§1) Aliquots were collected at different time points and used in ELISA measuring inhibition of EphA4 AP-ephrin-A5 Fc binding. For ELISA, ephrin-A5 Fc was immobilized at 1 μg/mL for 1 hour at room temperature in protein A-coated 96-well plates as described above. […] The amount of bound AP fusion protein was quantified by measuring the absorbance at 280 nm. The optical density obtained from wells coated with Fc and incubated with EphA4 AP and plasma or serum was subtracted as the background.
Series [2] addresses T1, EphA4 (Mus musculus, UniProt Q03137).
T1 construct: mouse EphA4 ectodomain fused to Fc; purchased R&D Systems
Description: ELISA, inhibition of ephrin-A5 AP binding to immobilized EphA4 Fc. As to conditions: C-terminally amidated peptides.

A short description of series [3]: Stability of antagonistic activity in cerebrospinal fluid (CSF). The following applies: rat, depending on the conditions, units inside the value.
Description: as §1
The nature of series [4]: in vitro. The following applies: rat, Half-life (t1/2) CSF.
Description: as §1
Series [5] relates to HT22 mouse hippocampal neurons. Description: MTT cytotoxicity assay. The series is classed as cell-based. The following applies: HT22 cells, 24 hours, 30 μM. As to the method:
HT22 mouse hippocampal neurons were grown in DMEM supplemented with 10% FBS, 1 mM sodium pyruvate and antibiotics. […] The cells were then incubated for 2 hours in 5 mg/mL MTT (Sigma-Aldrich) in PBS at 37° C. in a CO2 incubator. The resulting formazan crystals were solubilized by addition of 100% DMSO and OD570 was measured.

A short description of series [6]: in vitro. As to conditions: mouse, plasma, Half-life (t1/2) Plasma.
Description: as §1
Series [7] relates to other Eph receptors (EphA2, EphA3, EphA5, EphA6, EphA7, EphA8, EphB1, EphB2, EphB3, EphB4, EphB6). The experiment in a line: Eph receptor selectivity ELISA (ephrin-A5 AP / ephrin-B2 AP binding to Eph receptor Fc). The following applies: concentration about 100-fold higher than the IC50 value for EphA4.
The target in series [8] is EphA4 (Homo sapiens, UniProt P54764). The following applies: background statement; cited from earlier work.
EphA4 (Homo sapiens, UniProt P54764), sequence (P54764 20-986, species assumed): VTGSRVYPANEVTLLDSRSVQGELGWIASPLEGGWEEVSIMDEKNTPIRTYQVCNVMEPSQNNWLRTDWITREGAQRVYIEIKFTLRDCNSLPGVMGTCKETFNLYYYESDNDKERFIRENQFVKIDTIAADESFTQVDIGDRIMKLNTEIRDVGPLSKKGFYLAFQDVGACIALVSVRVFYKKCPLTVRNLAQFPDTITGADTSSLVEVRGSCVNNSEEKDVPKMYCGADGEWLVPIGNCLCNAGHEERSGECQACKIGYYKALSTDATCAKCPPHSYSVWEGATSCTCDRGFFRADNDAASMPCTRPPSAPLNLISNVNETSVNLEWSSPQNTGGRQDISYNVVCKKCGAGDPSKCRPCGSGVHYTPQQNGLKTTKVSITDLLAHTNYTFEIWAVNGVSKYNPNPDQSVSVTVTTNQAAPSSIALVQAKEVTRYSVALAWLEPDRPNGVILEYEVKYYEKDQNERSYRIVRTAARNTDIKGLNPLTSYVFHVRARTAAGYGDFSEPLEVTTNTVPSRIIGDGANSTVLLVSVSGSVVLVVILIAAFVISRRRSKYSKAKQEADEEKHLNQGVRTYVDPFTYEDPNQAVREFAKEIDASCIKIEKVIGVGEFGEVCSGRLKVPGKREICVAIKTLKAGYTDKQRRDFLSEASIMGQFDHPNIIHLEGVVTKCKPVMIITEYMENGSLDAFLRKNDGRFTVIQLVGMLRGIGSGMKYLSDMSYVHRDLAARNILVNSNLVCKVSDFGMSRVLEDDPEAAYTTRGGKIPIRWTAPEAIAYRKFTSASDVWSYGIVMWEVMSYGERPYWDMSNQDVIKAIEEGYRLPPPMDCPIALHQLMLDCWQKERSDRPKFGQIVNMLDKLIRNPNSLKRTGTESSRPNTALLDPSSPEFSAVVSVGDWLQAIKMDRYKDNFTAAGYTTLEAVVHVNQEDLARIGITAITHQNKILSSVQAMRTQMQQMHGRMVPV
The conditions of series [9]: mouse, plasma, Half-life (t1/2) Plasma.
Description: as §1

T1 sequence (Q03137 20-547 limits assumed): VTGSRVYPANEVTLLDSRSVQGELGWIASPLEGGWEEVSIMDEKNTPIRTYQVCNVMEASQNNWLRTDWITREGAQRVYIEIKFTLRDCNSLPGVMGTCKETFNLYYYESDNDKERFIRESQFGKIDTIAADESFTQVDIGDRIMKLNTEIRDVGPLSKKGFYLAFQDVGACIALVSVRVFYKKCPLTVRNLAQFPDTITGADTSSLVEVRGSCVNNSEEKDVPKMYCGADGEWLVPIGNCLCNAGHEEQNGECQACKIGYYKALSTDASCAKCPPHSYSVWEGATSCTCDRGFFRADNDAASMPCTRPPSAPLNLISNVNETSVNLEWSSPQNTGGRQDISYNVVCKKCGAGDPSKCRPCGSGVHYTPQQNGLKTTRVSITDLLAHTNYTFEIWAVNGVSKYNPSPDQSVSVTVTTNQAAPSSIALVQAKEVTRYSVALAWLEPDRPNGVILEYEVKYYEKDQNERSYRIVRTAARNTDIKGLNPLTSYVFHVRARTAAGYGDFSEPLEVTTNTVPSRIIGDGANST

Compound `CC(C)[C@@H]1NC(=O)[C@@H](NC(=O)[C@H](Cc2ccc(O)cc2)NC(=O)[C@@H]2CCCN2C(=O)[C@H](C)N)CSSC[C@@H](C(=O)O)NC(=O)[C@H](CO)NC(=O)[C@H](Cc2c[nH]c3ccccc23)NC(=O)[C@H](CO)NC(=O)CNC(=O)[C@H](CCCNC(=N)N)NC(=O)[C@H](Cc2ccc(O)cc2)NC1=O` [APY, reference compound] gave a half-life at 200 μM in series [1] (mouse, plasma, Half-life (t1/2) Plasma, mouse plasma, 37° C., loss of antagonistic activity) of 0.267 h.

As to `CC(C)[C@@H]1NC(=O)[C@@H](NC(=O)[C@H](Cc2ccc(O)cc2)NC(=O)[C@@H]2CCCN2C(=O)[C@H](C)N)CSSC[C@@H](C(N)=O)NC(=O)[C@H](CO)NC(=O)[C@H](Cc2c[nH]c3ccccc23)NC(=O)[C@H](CO)NC(=O)[C@H](C)NC(=O)[C@H](CCCNC(=N)N)NC(=O)[C@H](Cc2ccc(O)cc2)NC1=O` [APY-Ala8.am], the “loss in potency on replacement of Gly8” value at EphA4 [2] (relative to APY.am) is “about 30 fold”.

Consider `CC(C)[C@@H]1NC(=O)[C@@H](NC(=O)[C@H](Cc2ccc(O)cc2)NC(=O)[C@@H]2CCCN2C(=O)[C@H](C)N)CSSC[C@@H](C(N)=O)NC(=O)[C@H](CO)NC(=O)[C@H](Cc2c[nH]c3ccccc23)NC(=O)[C@H](CO)NC(=O)[C@@H](C)NC(=O)[C@H](CCCNC(=N)N)NC(=O)[C@H](Cc2ccc(O)cc2)NC1=O` [APY-DAla8.am], for which, on EphA4 [2], the “effect of Gly8 replacement on potency” value is recorded as “did not substantially affect potency”.

As for `CC(C)[C@@H]1NC(=O)[C@@H](NC(=O)[C@H](Cc2ccc(O)cc2)NC(=O)[C@@H]2CCCN2C(=O)[C@H](C)N)CSSC[C@@H](C(N)=O)NC(=O)[C@H](CO)NC(=O)[C@H](Cc2c[nH]c3ccccc23)NC(=O)[C@H](CO)NC(=O)CCNC(=O)[C@H](CCCNC(=N)N)NC(=O)[C@H](Cc2ccc(O)cc2)NC1=O` [APY-βAla8.am, APYCVYRβASWSC-am], the half-life at 200 μM is 0.5 to 3 h in series [3], 0.5 to 3 h in “in vitro [4]” and around 2 h in “in vitro [6]”. For the same compound, the “cytotoxicity (MTT)” value in series [5] is on record as “did not reveal significant cytotoxicity; also recorded: does not have detectable cytotoxic effects”. Besides, the increase in stability in [1] (relative to KYL and APY) is given as 2-8 fold. Besides, in [7], the “inhibition of other Eph receptors” value is “does not inhibit other Eph receptors”.

For the compound `CC(C)[C@@H]1NC(=O)[C@@H](NC(=O)[C@H](Cc2ccc(O)cc2)NC(=O)[C@@H]2CCCN2C(=O)[C@@H](C)N)CSSC[C@@H](C(N)=O)NC(=O)[C@H](CO)NC(=O)[C@H](Cc2c[nH]c3ccccc23)NC(=O)[C@H](CO)NC(=O)CCNC(=O)[C@H](CCCNC(=N)N)NC(=O)[C@H](Cc2ccc(O)cc2)NC1=O` [DAla1-PY-βAla8.am, D-APYCVYRβASWSC-am], the half-life at 200 μM in the series “in vitro [4]” and in “in vitro [6]” was around 72 h in each case.

On to KYLPYWPVLSSL [KYL], for which the Kd on EphA4 [8] is 800 to 1000 nM. Also, in series [9], the half-life is 0.183 h.

These data come from patent US10322161B2, “EPHA4 cyclic peptide antagonists for neuroprotection and neural repair” (Sanford Burnham Prebys Medical Discovery Institute, priority 2014, dated 2019).
